From US12663562B2, “Polysaccharide hydrogel optical fibers and their fabrication and use” (The Board of Trustees of the Leland Stanford Junior …, priority 2021, dated 2026)

What was measured:
Format in all cases: cell-based
DU145 cells = assay: Spectral fingerprinting (RFP-level transmission, real-time calcein AM metabolism) of cancer cells in living optical fibers; conditions: DU145 cells in fiber core, 48 h culture, 1.5 μM cisplatin or 1 μM staurosporine
Procedure: (§1) To validate the possibility of light carrying information upon interaction with fluorescent molecules, 3T3 fibroblasts were stained with two model fluorescent markers of different wavelengths, namely Orange Cell Tracker CMRA and Calcein AM (Invitrogen) according to manufacturer's instructions. Briefly, 3T3 cells in suspension were incubated with each marker for 30 minutes under 37° C., washed with PBS, and introduced in the optical fiber core as described above. Fibers were then fabricated and aligned in the input-output setup as previously described the light source and spectrometer. Output spectra were collected and spectral ratios were obtained by dividing the spectra of fluorescent-tagged cell-laden fibers to those without fluorescent molecules, in order to confirm the presence of transmission dips in agreement with the marker's excitation curves. For performing calcein AM overtime metabolic tracking, 4 cm-long fibers with unstained cells were aligned in the optical readout setup, and 10 μL of a 1:100 Calcein AM solution in CaPBS was added dropwise along the optical fiber's length. The spectral output was then collected every minute for a total of 10 minutes after the beginning of the calcein AM metabolization. The 495 nm normalized transmission values were obtained by normalizing all spectral curves to their maximum and extracting the normalized intensity values as an average of the 493-495 nm window. These were then plotted overtime.
LNCaP, 22Rv1, and DU145 cells were purchased from the American Type Culture Collection (ATCC; Manassas, VA). All cell lines were authenticated through Stanford Functional Genomics Facility. FUCRW plasmid was a kind gift from Dr. Owen Witte's laboratory at University of California Los Angeles. 22Rv1 and DU145 cells were infected with FUCRW virus expressing red fluorescent protein (RFP). RFP signal was confirmed 72 hours post infection. […]
Spectral fingerprinting tests with the different cell lines were performed by integrating them within optical hydrogel fibers as described in the previous section. […] After 48 h of culture, the living optical fibers were washed twice with PBS to remove media remains that could interfere with optical readouts (e.g., Phenol Red). […] RFP-level transmission readouts were immediately obtained from the first output collected, and calcein activity overtime was then tracked by the addition of calcein and spectral recording every minute for 10 minutes, as described in the previous section. […] Both RFP and calcein signals were analyzed in several pictures per replicate via Cell Profiler, in order to compare the relative post-incubation signal intensities to the relative decreases in fiber optics transmission at each specific wavelength instantly (RFP) and overtime (calcein).

RV122 cancer cells = assay: Optical fiber anti-cancer drug testing (RFP-level transmission, calcein profiling, image quantification); conditions: for calcein activity profiling (slope of calcein conversion): RV122 cancer cells after culture with drug; for image quantification of native protein expression (RFP) and calcein metabolization: microscopy validation, RV122 cancer cells
Procedure: as §1
LNCaP, 22Rv1, and DU145 cells were purchased from the American Type Culture Collection (ATCC; Manassas, VA). All cell lines were authenticated through Stanford Functional Genomics Facility. FUCRW plasmid was a kind gift from Dr. Owen Witte's laboratory at University of California Los Angeles. 22Rv1 and DU145 cells were infected with FUCRW virus expressing red fluorescent protein (RFP). RFP signal was confirmed 72 hours post infection. LNCaP-RFP-Trop2-OV cells expressing RFP and Trop2 oncogene were generated as previously described ^43. All cells were cultured in RPMI medium supplemented with 10% FBS, 4 mM L-glutamine, and 1% penicillin/streptomycin.
Spectral fingerprinting tests with the different cell lines were performed by integrating them within optical hydrogel fibers as described in the previous section. Briefly, cancer cells were resuspended in the core material at a density of 10 M/mL and cultured in different conditions, namely control medium, 1.5 μM Cisplatin (Biovision) or 1 μM Staurosporine (Biovision). After 48 h of culture, the living optical fibers were washed twice with PBS to remove media remains that could interfere with optical readouts (e.g., Phenol Red). Before measurement, fibers were placed in a 1 mM CaCl2) solution to facilitate their manipulation and were then aligned in the optical characterization setup with spectrometer connection. RFP-level transmission readouts were immediately obtained from the first output collected, and calcein activity overtime was then tracked by the addition of calcein and spectral recording every minute for 10 minutes, as described in the previous section. […] Both RFP and calcein signals were analyzed in several pictures per replicate via Cell Profiler, in order to compare the relative post-incubation signal intensities to the relative decreases in fiber optics transmission at each specific wavelength instantly (RFP) and overtime (calcein).

[1] = tested on: LnCAP-RFP-Trop2-OV cancer cells; assay: Digitalization and quantification of 3D cancer invasive proliferation in living optical fibers (output power, RFP-level transmission)
Procedure: In order to evaluate the invasive proliferation of encapsulated cancer cells over time and quantify this response through optics upon exposure to different levels of the anti-proliferative drug cisplatin, the core material was modified by blending alginate with GelTrex (Growth-Factor Reduced Basement Membrane, Thermofisher) at a 50:50 ratio. Fibers with Cells were fabricated as described before with a 10 million/mL density and were cultured for 1 week to observe the cancer tissue development and the formation of fiberoid (fiber-shaped organoids) structures. To do so, fibers were incubated with Calcein AM 1:500 (Invitrogen) and Hoechst 33342 1:1000 (Thermo Scientific), washed with PBS and imaged under confocal microscope (Zeiss). As model cell line, we used the RFP-expressing LNCaP-RFP-Trop2-OV due to its aggressiveness and relevance in metastatic events. To then quantify the effect of cisplatin in the impedance of 3D tumor growth, fibers were cultured over a 5-days period under control conditions and increasing concentrations of cisplatin (1.5, 15 and 150 μM). After each time point, fibers were washed twice with CaPBS, briefly dipped in 1 mM CaCl2) and aligned in the optical characterization setup. Two types of immediate readouts were acquired: output power via powermeter reading and spectral response through spectrometer connection. Output power was directly used as an indicator of light attenuation induced by tumor growth and spectral data was processed to extract RFP-level transmission values, as plotted in the maintext. In parallel, fibers were also axially sectioned and imaged in confocal microscope for observing the distribution of cancer cells and aggregates within the fiber structure overtime and validate the fiber optics readouts.

| Compound | RFP expression (RFP-level transmission) (DU145 cells) | capacity of cells to metabolize calcein (calcein AM real-time profile) (DU145 cells) | calcein activity profiling (slope of calcein conversion) (RV122 cancer cells) | image quantification of native protein expression (RFP) and calcein metabolization (RV122 cancer cells) | RFP expression (RFP-level transmission) ([1]; cisplatin 1.5 µM) | cancer growth (optical fiber output power) ([1]; cisplatin 1.5 μM, up to 5 days) | RFP expression (RFP-level transmission) ([1]; cisplatin 15 μM) | cancer growth (optical fiber output power) ([1]; cisplatin 15 μM, up to 5 days) | RFP expression (RFP-level transmission) ([1]; cisplatin 150 μM, after 1 day of culture) | cancer growth / invasive proliferation (optical fiber output power) ([1]; cisplatin 150 μM, up to 5 days) | native fluorescence, RFP-level transmission (RV122 cancer cells; RV122 cancer cells in fibers after drug exposure) |
| --- | --- | --- | --- | --- | --- | --- | --- | --- | --- | --- | --- |
| N.N.[Cl][Pt][Cl] [cisplatin] | little impact | little impact | decrease in the slope | moderate effect | some effect in the protein's expression by day 5 | no significant impact | noticeable effect after day 3 | prevented considerable growth after 3 days | significant decrease in expression | efficiently inhibited the invasive proliferation | – |
| CN[C@@H]1C[C@H]2O[C@@](C)([C@@H]1OC)n1c3ccccc3c3c4c(c5c6ccccc6n2c5c31)C(=O)NC4 [staurosporine] | significant reduction in RFP expression | drastic inhibition | no longer possible to observe metabolic calcein conversion | more prominent effects | – | – | – | – | – | – | significant decrease in fluorescent |
